Measured values reported in ChEMBL document CHEMBL5113384, “Small-molecule inhibitors targeting small ubiquitin-like modifier pathway for the treatment of cancers and other diseases” (Eur J Med Chem, 2022).

Experiments:
[1] = Inhibition of His-tagged SUMO1/SUMO E1 /GST-tagged Aos1/Uba2/His-tagged Ubc9 (unknown origin)-mediated recombinant His/T7-tagged RanGAP1-C-terminal fragment SUMOylation assessed as change in chemical shift perturbation by 1H,15N HSQC NMR spectroscopy analysis; set-up: species or system Homo sapiens
[2] = Inhibition of His-tagged SUMO1/SUMO E1 /His-tagged Ubc9 (unknown origin)-mediated SUMOylation using FL-AR as substrate incubated for 90 mins in presence of ATP by Western blot analysis; set-up: species or system Homo sapiens
[3] = (§1) Inhibition of His-tagged SUMO1/GST-tagged Aos1/Uba2/His-tagged Ubc9 (unknown origin)-mediated recombinant His/T7-tagged RanGAP1-C-terminal fragment SUMOylation expressed in Escherichia coli BL21 (DE3) assessed as reduction in Ubc9-SUMO level in presence of ATP by SDS-PAGE based immunoblotting analysis; set-up: species or system Homo sapiens
[4] = Inhibition of His-tagged SUMO/SAE /Ubc9 (unknown origin)-mediated recombinant 6His-tagged RanGAP1 SUMOylation in presence of ATP by HTRF analysis; set-up: species or system Homo sapiens
[5] = Inhibition of SUMO E1 (unknown origin); set-up: species or system Homo sapiens
[6] = Inhibition of Plasmodium falciparum SENP1 using QTGG-AFC as substrate by fluorescence based analysis
[7] = Inhibition of His-tagged SUMO1/SUMO E1 /GST-tagged Aos1/Uba2/His-tagged Ubc9 (unknown origin)-mediated recombinant His/T7-tagged RanGAP1-C2-terminal fragment SUMOylation in presence of ATP by SDS-PAGE based immunoblotting analysis; set-up: species or system Homo sapiens
[8] = as §1, with “SUMO1/SUMO E1 /GST-tagged” for “SUMO1/GST-tagged”, “level measured upto 2 hrs” for “level”, “fluorescence polarization” for “SDS-PAGE based immunoblotting”; set-up: species or system Homo sapiens
[9] = Inhibition of UAE (unknown origin); set-up: species or system Homo sapiens
NEDD8 activating enzyme = molecular target: T1, NEDD8 activating enzyme (Homo sapiens, UniProt Q8TBC4); assay: Inhibition of NAE (unknown origin); format: protein-complex assay
T1 sequence (Q8TBC4 whole entry): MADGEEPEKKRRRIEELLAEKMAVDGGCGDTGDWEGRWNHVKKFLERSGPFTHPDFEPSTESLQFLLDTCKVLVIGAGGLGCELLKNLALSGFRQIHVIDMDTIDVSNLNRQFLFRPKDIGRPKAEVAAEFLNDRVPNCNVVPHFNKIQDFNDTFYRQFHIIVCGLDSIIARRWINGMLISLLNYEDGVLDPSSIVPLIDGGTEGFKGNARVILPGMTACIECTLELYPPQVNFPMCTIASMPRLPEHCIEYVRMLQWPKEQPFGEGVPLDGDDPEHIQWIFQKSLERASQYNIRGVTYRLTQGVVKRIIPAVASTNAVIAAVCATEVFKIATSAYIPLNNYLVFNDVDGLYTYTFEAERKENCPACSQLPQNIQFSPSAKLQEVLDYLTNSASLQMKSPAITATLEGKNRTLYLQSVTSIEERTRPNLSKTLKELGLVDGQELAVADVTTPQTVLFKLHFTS
T1 sequence (Q13564 whole entry): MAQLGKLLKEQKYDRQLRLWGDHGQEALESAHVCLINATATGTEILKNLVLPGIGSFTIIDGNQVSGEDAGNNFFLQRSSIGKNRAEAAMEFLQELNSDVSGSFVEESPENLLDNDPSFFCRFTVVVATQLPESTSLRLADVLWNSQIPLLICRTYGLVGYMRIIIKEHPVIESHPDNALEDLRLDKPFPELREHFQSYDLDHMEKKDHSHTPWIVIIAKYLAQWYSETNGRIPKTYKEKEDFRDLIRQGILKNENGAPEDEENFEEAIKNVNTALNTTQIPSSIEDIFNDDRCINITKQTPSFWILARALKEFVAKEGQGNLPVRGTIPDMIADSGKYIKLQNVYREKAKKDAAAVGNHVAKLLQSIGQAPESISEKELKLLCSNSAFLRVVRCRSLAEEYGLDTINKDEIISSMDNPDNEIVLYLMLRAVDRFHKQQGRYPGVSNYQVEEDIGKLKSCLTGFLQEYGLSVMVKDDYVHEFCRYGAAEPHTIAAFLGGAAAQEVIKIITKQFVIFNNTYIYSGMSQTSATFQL

[10] = Inhibition of His-tagged SUMO1/SUMO E1 /His-tagged Ubc9 (unknown origin)-mediated […] SUMOylation using FL-AR as substrate incubated for 90 mins in presence of ATP by peptide microarray-based fluorescence assay; set-up: species or system Homo sapiens
PC-3 = assay: Antiproliferative activity against human PC-3 cells assessed as cell growth inhibition incubated for 48 hrs by MTT assay; format: functional, cell-based; conditions: PC-3, 48 h
LNCaP = assay: Antiproliferative activity against androgen-sensitive human LNCaP cells assessed as cell growth inhibition incubated for 48 hrs by MTT assay; format: functional, cell-based

`Oc1ccccc1-c1ccccc1O` showed an IC50 [1] of 5800 µM.

`O=c1cc(-c2ccc(O)c(O)c2O)oc2ccccc12` showed an IC50 [2] of 6 µM.

With `C[C@@H]1O[C@@H](O[C@@H]2C[C@H](c3ccc4c(c3O)C(=O)C3=C(C4=O)[C@@]4(O[C@H]5CC[C@H](O)[C@H](C)O5)C(=O)C[C@](C)(O)C[C@@]4(O)C=C3)O[C@H](C)[C@H]2O)CC[C@@H]1O[C@H]1C[C@@H](O)[C@H](O)[C@@H](C)O1` the IC50 [3] was 11.7 µM.

For `COC(=O)C1=C(C(=O)OC)[C@@]2([C@@H](Cc3ccc(C)cc3)Nc3ccccc3)C=C[C@@H]1O2`, the IC50 [4] was 0.2 µM.

For `NS(=O)(=O)OC[C@@H]1C[C@@H](n2ccc3c(NC4CCc5ccccc54)ncnc32)C[C@@H]1O` (stereo partly drawn), the IC50 [5] was 8.2 µM.

In the case of `O=C(O)CN(NC(=O)c1ccc(CNC(=O)c2cccc(C(=O)O)c2)cc1)C(=O)[C@H]1O[C@@H]1C(=O)C(Cc1cccc2ccccc12)Cc1cccc2ccccc12`, the IC50 [6] is reported as 17.9 µM.

Compound `CCOC(=O)CCc1ccc(-c2ccccc2O)c(O)c1` has an IC50 [1] of 3000 µM.

In the case of `CO/C(=C/C(=O)O)[C@H]1c2cc3ccc(-c4ccc5cc6c(c(O)c5c4O)C(=O)C[C@@](C)(O)[C@H]6/C(=C\C(=O)O)OC)c(O)c3c(O)c2C(=O)C[C@@]1(C)O`, the IC50 [7] is reported as 4.4 µM.

`COc1ccc(NC(=O)[C@H](CCCN)Nc2cc(C)nc(NCCc3cccs3)n2)cc1` showed an IC50 [8] of 12.5 µM.

`NS(=O)(=O)OC[C@@H]1C[C@@H](Nc2ncncc2C(=O)c2ccn(Cc3cccc(Br)c3)n2)C[C@@H]1O` showed an IC50 [9] greater than 100 µM, an IC50 [5] of 0.003 µM and an IC50 (NEDD8 activating enzyme) of 32 µM.

Compound `O=C(O)c1cccc(C(=O)NCc2ccc(C(=O)NNC(=O)[C@H]3O[C@@H]3C(=O)C(Cc3cccc4ccccc34)Cc3cccc4ccccc34)cc2)c1` has an IC50 [6] of 16.2 µM.

With `c1coc(-c2cc(CNc3ncnc4sc5cnccc5c34)no2)c1` the IC50 [10] was 74 µM.

Work on `CCCCCCCCCCCCCCCc1cccc(O)c1C(=O)O` [ANACARDIC ACID] yielded an IC50 [3] of 2.2 µM.

With `CCCCCC/C=C\CCCCCCCc1cccc(O)c1C(=O)O` [GINGKOLIC ACID] the IC50 [3] was 3 µM.

In the case of `CC(C)[C@]12O[C@H]1[C@@H]1O[C@]13[C@]1(O[C@H]1C[C@H]1C4=C(CC[C@@]13C)C(=O)OC4)[C@@H]2O` [TRIPTOLIDE], the IC50 (PC-3) is reported as 0.0203 µM and the IC50 (LNCaP) is reported as 0.0097 µM.
